Data taken from ChEMBL document CHEMBL1201862, “PubChem BioAssay data set” (2004).
Activity calls are given as the source filed them. Cut-off read from the data, not from the text of the source, for most assays here: actives have a measured IC50 and inactives only a lower limit.

Tests used:
Type in all cases: functional
[1] = target: T1, Sentrin-specific protease 8 (Homo sapiens, UniProt Q96LD8); assay: inhibition of human SENP8 cleavage activity – biochemical, luminescence, SAR follow-up (AID 504501)
T1 sequence (Q96LD8 whole entry): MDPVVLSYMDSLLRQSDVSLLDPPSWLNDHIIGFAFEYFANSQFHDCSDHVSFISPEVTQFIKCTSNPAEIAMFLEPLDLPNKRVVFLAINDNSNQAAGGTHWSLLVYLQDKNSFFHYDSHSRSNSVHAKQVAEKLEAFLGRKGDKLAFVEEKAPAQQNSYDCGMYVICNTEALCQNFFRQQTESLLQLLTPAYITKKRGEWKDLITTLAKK

[2] = target: T1, Sentrin-specific protease 8
[3] = target: T2, Sentrin-specific protease 6 (Homo sapiens, UniProt Q9GZR1)
T2 sequence (Q9GZR1 whole entry): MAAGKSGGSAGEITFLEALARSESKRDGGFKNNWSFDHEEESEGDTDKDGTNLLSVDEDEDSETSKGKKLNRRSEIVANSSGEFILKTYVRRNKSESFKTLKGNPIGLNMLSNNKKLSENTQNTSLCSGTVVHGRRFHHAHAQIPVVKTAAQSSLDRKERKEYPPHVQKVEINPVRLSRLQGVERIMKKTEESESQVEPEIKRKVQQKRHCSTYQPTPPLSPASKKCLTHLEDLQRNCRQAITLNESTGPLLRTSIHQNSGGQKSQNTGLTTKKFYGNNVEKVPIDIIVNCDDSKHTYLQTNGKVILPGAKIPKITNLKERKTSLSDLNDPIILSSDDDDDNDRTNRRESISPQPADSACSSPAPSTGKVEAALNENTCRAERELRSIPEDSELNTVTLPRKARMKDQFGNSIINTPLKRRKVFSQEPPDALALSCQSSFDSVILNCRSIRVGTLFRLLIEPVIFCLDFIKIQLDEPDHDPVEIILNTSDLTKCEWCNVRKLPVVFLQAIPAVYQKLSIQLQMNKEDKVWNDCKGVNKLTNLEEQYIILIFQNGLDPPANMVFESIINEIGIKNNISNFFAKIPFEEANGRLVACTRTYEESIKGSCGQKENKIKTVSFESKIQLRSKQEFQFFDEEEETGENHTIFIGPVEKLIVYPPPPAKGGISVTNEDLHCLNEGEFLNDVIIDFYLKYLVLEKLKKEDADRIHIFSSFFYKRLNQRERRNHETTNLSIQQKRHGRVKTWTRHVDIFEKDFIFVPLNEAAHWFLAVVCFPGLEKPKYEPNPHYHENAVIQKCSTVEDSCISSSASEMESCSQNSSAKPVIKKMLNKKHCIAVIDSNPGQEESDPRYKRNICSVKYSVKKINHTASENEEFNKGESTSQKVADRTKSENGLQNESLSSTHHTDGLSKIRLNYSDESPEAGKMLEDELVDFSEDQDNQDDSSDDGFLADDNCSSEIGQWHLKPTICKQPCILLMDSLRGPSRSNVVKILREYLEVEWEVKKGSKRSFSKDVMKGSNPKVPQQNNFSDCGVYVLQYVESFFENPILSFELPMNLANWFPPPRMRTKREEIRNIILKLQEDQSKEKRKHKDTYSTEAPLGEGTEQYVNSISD

Caspase-3 [4] = target: T3, Caspase-3 (Homo sapiens, UniProt P42574); assay: SAR Analysis of small molecule inhibitors of Sentrin-specific proteases (SENPs) using a Caspase-3 Selectivity assay. [Related pubchem assays (depositor defined):AID2540, AID2599, AID434973, AID489001]
T3 sequence (P42574 whole entry): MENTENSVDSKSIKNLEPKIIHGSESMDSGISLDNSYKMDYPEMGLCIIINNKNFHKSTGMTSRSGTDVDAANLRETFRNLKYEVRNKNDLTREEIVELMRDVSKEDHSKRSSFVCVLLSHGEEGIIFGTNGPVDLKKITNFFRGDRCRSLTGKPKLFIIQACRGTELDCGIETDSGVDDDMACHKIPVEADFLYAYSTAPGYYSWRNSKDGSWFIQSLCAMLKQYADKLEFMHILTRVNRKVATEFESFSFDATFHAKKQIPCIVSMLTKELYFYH

Caspase-3 [5] = target: T3, Caspase-3
[6] = target: T4, Sentrin-specific protease 7 (Homo sapiens, UniProt Q9BQF6); assay: inhibition of human SENP7 cleavage activity – biochemical, luminescence, SAR follow-up (AID 504497)
T4 sequence (Q9BQF6 whole entry): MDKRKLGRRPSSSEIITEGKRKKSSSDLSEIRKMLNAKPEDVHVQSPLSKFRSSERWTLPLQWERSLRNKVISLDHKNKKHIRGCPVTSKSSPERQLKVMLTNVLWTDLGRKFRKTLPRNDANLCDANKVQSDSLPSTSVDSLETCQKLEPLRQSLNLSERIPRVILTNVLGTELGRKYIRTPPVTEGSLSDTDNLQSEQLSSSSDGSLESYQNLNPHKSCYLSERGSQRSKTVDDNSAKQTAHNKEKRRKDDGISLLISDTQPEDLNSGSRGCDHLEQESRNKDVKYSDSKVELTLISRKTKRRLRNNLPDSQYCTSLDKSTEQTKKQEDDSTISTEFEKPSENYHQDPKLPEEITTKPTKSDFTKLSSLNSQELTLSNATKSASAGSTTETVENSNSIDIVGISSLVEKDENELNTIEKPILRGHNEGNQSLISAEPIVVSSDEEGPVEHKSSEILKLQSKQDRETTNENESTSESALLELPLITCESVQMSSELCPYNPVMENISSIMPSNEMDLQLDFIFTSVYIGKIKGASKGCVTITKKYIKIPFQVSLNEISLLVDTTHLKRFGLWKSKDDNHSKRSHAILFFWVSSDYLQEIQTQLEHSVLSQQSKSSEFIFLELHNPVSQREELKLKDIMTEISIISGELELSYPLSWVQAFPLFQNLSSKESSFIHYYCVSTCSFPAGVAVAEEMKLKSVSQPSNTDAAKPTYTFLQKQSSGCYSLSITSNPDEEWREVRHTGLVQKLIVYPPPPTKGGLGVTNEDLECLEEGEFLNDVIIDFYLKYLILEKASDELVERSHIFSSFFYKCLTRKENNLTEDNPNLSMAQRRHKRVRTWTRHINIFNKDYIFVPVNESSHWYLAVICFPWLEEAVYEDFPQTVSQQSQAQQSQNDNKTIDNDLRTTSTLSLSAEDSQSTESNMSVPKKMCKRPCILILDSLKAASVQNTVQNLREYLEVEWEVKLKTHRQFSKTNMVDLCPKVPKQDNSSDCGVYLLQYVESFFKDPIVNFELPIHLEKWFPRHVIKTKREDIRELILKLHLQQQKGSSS

[7] = target: T4, Sentrin-specific protease 7
[8] = target: T2, Sentrin-specific protease 6; assay: SAR Analysis of small molecule inhibitors of Sentrin-specific protease 6 (SENP6) using a Luminescent assay. [Related pubchem assays (depositor defined):AID2582, AID2599]
Hexokinase-1 = target: T5, Hexokinase-1 (Homo sapiens, UniProt P19367); assay: SAR analysis of small molecule inhibitors of hexokinase domain containing I (HKDC1) in the hexokinase 1 selectivity assay. [Related pubchem assays (depositor defined):AID493160, AID493190]
T5 sequence (P19367 whole entry): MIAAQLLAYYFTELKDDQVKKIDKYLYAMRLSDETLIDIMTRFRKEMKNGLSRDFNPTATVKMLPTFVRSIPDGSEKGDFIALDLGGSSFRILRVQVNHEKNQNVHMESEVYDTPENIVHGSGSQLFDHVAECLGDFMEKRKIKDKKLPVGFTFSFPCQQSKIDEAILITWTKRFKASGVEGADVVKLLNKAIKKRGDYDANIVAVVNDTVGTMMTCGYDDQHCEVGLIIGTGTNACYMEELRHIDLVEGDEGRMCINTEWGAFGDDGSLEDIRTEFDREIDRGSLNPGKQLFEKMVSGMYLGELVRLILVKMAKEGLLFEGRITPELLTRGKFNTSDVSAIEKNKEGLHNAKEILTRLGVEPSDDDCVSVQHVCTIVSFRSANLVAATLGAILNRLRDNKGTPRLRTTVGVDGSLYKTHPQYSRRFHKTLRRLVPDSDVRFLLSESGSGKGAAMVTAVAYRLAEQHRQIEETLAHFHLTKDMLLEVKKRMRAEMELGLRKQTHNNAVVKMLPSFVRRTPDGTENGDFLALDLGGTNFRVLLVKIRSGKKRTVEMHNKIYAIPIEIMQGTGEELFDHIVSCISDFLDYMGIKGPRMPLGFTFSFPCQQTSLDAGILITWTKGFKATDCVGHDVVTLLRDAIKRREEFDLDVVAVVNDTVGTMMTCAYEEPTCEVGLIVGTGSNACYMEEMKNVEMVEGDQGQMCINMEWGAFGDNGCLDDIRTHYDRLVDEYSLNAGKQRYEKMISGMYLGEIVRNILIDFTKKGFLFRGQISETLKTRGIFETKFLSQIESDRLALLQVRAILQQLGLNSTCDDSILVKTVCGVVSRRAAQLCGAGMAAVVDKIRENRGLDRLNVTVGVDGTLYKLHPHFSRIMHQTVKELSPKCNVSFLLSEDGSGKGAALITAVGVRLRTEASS

[9] = target: Eukaryotic translation initiation factor 4E (Mus musculus, UniProt P63073); assay: blockers of eIF4G binding by eIF4E – biochemical, TR-FRET, dose response (AID 855);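 note: potency for disrupting eIF4E binding to eIF4GI seen as loss of FRET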
Hexokinase HKDC1 = target: T6, Hexokinase HKDC1 (Homo sapiens, UniProt Q2TB90); assay: SAR analysis of small molecule inhibitors of hexokinase domain containing I (HKDC1). [Related pubchem assays (depositor defined):AID493160, AID493190]
T6 sequence (Q2TB90 whole entry): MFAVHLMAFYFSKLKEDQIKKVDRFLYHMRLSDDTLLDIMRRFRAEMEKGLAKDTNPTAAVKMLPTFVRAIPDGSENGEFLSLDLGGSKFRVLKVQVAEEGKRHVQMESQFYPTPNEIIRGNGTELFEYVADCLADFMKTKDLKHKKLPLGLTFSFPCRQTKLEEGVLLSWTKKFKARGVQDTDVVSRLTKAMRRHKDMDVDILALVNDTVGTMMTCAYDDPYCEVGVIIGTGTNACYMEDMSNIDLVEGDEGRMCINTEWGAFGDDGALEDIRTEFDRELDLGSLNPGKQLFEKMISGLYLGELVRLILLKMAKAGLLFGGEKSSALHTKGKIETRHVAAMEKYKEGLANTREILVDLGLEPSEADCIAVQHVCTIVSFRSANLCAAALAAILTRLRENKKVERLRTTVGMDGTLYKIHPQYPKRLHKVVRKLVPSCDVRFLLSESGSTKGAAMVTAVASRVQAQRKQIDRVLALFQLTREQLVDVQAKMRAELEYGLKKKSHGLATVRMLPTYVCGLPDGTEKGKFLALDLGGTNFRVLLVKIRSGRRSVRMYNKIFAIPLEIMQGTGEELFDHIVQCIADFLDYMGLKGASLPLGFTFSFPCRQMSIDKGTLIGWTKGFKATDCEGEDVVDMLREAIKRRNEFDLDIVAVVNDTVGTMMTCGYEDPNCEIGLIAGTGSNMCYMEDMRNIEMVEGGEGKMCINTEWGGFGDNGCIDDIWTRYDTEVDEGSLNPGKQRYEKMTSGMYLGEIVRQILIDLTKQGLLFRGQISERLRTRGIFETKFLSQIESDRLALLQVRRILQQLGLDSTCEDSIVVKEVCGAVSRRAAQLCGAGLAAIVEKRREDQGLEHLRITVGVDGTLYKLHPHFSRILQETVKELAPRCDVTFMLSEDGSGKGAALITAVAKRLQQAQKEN

Sequence of Eukaryotic translation initiation factor 4E (P63073 whole entry, the tested form may be a part): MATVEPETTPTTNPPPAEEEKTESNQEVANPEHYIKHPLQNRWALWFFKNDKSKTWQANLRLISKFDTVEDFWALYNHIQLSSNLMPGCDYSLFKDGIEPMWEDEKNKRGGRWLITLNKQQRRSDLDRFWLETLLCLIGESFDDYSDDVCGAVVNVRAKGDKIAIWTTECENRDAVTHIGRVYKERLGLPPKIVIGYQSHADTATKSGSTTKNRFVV

| Structure (SMILES) | IC50 [2] | IC50 [3] | IC50 (Caspase-3 [5]) | IC50 [7] | IC50 (Hexokinase-1) | IC50 (Hexokinase HKDC1) | other results |
| --- | --- | --- | --- | --- | --- | --- | --- |
| O=C(O)c1ccc(OC2CSC2)cc1 | 8.43 µM (active) | 13 µM (active) | 94.9 µM (active) | > 100 µM (inactive) |  |  | IC50 [1]: 30 µM (active); IC50 (Caspase-3 [4]): > 99 µM (inactive); IC50 [6]: > 99 µM (inactive); IC50 [8]: 18.7 µM (active) |
| Clc1ccc2oc(-c3ccccc3)nc2c1 | > 100 µM (inactive) | 22 µM (active) | 14.2 µM (active) | 7.93 µM (active) |  |  |  |
| O=C(Nc1nnc(SCc2ccc(F)cc2)s1)c1ccc2ncsc2c1 |  |  |  |  | > 80 µM (inactive) | 12 µM (active) | IC50 [9]: 26.2 µM (active) |
| O=C(O)CSc1cc(NS(=O)(=O)c2ccccc2)c2ccccc2c1O |  |  |  |  | > 80 µM (inactive) | 4.84 µM (active) |  |
| Cc1nc(C)c(C(=O)Nc2cccc(C(=O)Nc3cccc(C(F)(F)F)c3)c2)s1 |  |  |  |  | > 80 µM (inactive) | > 80 µM (inactive) |  |
